Experimental data: patent publication EP0326331B1, “Substituted quinolines and cinnolines” (Dow AgroSciences LLC, priority 1988, dated 1989)

Key:
Assay type in all cases: in vivo
[1] = tested on: Pyricularia oryzae (rice blast); experiment: whole plant or invertebrate; conditions: disease control rating, foliar spray on rice, 400 ppm (+++ at 100 ppm)
[2] = tested on: Erysiphe graminis tritici (powdery mildew); experiment: Test 1 greenhouse foliar spray screen, powdery mildew on wheat; conditions: disease control rating, foliar spray on wheat, 400 ppm (+++ at 100 ppm)
[3] = tested on: Twospotted spider mites (Tetranychus urticae Koch); experiment: Mite/insect screen, SM; conditions: percent mortality, SAW, SM & MA RATE 200 PPM; for mortality at 200 ppm: Tetranychus urticae, read-out: SM RESULTS %
How it was run: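 Foliar spray to runoff (10 psi), 1 h drying; aqueous dilutions from acetone/alcohol emulsifier stock. Mortality (%) after standard exposure.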

[4] = tested on: Cercospora beticola (leaf spot); experiment: Test 1 greenhouse foliar spray screen, leaf spot on sugar beet; conditions: disease control rating, foliar spray on sugar beet, 400 ppm (+++ at 100 ppm)
[5] = tested on: Venturia inaequalis (apple scab); experiment: Test 1 greenhouse foliar spray screen, apple scab on apple seedling; conditions: disease control rating, foliar spray on apple seedling, 400 ppm (+++ at 100 ppm)
[6] = tested on: Botrytis cinerea (gray mold); experiment: Test 1 greenhouse foliar spray screen, gray mold on grape berries; conditions: disease control rating, spray on grape berries, 400 ppm (+++ at 100 ppm)
[7] = tested on: Pseudoperonospora cubensis (downy mildew); experiment: Test 1 greenhouse foliar spray screen, downy mildew on squash; conditions: disease control rating, foliar spray on squash, 400 ppm (+++ at 100 ppm)
[8] = tested on: southern armyworm (Spodopetra eridania Cramer); experiment: Mite/insect screen, SAW; conditions: percent mortality, SAW, SM & MA RATE 200 PPM; for mortality at 200 ppm: Spodoptera eridania, read-out: SAW RESULTS %
How it was run: (§1)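 Read-out: percent mortality after standard exposure periods. Test solutions were water dilutions of compound dissolved in acetone/alcohol (50:50) with emulsifier blends; leaves were sprayed to runoff on both surfaces and air-dried for one hour before exposure.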

[9] = tested on: Puccinia recondita tritici (leaf rust); experiment: Test 1 greenhouse foliar spray screen, leaf rust on wheat; conditions: disease control rating, foliar spray on wheat, 400 ppm (+++ at 100 ppm)
[10] = tested on: melon aphids (Aphis gossypii Glover); experiment: Mite/insect screen, MA; conditions: percent mortality, SAW, SM & MA RATE 200 PPM; for mortality at 200 ppm: Aphis gossypii, read-out: MA RESULTS %
How it was run: as §1

[11] = tested on: Septoria tritici (leaf blotch); experiment: Test 1 greenhouse foliar spray screen, leaf blotch on wheat; conditions: disease control rating, foliar spray on wheat, 400 ppm (+++ at 100 ppm)
corn rootworm = experiment: Mite/insect screen, CRW; conditions: percent mortality, CRW RATE 12.00 PPM; for mortality at 12 ppm: read-out: CRW RESULTS %
How it was run: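 Read-out: % mortality after standard exposure. Formulation: acetone/alcohol (50:50) with emulsifiers at 23 g and 13 g per liter, water-diluted to final test levels.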

For Clc1cccc2c(NCCc3cccc4ccccc34)ccnc12 [Example 155, 8-chloro-N-[2-(1-naphthyl)ethyl]-4-quinolinamine], the “RICE BLAST” value [1] was “+ (20-89% control at 400 ppm)”, the “POWD MDEW” value [2] was “- (0-19% control at 400 ppm)” and the mortality at 200 ppm [3] was 0%. For the same molecule, the “LEAF SPOT” value [4] was “- (0-19% control at 400 ppm)”, the “APPL SCAB” value [5] was “- (0-19% control at 400 ppm)” and the “GRAY MOLD” value [6] was “- (0-19% control at 400 ppm)”. For the same molecule, the “DOWN MDEW” value [7] was “+++ (90-100% control at 100 ppm)”, the mortality at 200 ppm [8] was 0% and the “LEAF RUST” value [9] was “- (0-19% control at 400 ppm)”. For the same molecule, the mortality at 200 ppm [10] was 0%, the “LEAF BLOT” value [11] was “- (0-19% control at 400 ppm)” and the mortality at 12 ppm (corn rootworm) was 0%.

In the case of Clc1cccc2c(NCCc3ccc4ccccc4c3)ccnc12 [Example 156, 8-chloro-N-[2-(2-naphthyl)ethyl]-4-quinolinamine], the “RICE BLAST” value [1] is reported as “+ (20-89% control at 400 ppm)”, the “POWD MDEW” value [2] is reported as “- (0-19% control at 400 ppm)” and the mortality at 200 ppm [3] is reported as 0%. The “SM RESULTS %” value [3] was 0%, the “LEAF SPOT” value [4] was “- (0-19% control at 400 ppm)” and the “APPL SCAB” value [5] was “- (0-19% control at 400 ppm)”. The “GRAY MOLD” value [6] was “- (0-19% control at 400 ppm)”, the “DOWN MDEW” value [7] was “+++ (90-100% control at 100 ppm)” and the mortality at 200 ppm [8] was 0%. For the same molecule, the “SAW RESULTS %” value [8] was 0%, the “LEAF RUST” value [9] was “+ (20-89% control at 400 ppm)” and the mortality at 200 ppm [10] was 0%. For the same molecule, the “MA RESULTS %” value [10] was 0%, the “LEAF BLOT” value [11] was “- (0-19% control at 400 ppm)” and the “CRW RESULTS %” value (corn rootworm) was 0%. The mortality at 12 ppm (corn rootworm) was 0%.

With Fc1cccc2c(NCCc3cccc4ccccc34)ccnc12 [Example 158, 8-fluoro-N-[2-(1-naphthyl)ethyl]-4-quinolinamine] the “RICE BLAST” value [1] was “+++ (90-100% control at 100 ppm)”, the “POWD MDEW” value [2] was “+ (20-89% control at 400 ppm)” and the mortality at 200 ppm [3] was 0%. The “LEAF SPOT” value [4] was “+ (20-89% control at 400 ppm)”, the “APPL SCAB” value [5] was “- (0-19% control at 400 ppm)” and the “GRAY MOLD” value [6] was “- (0-19% control at 400 ppm)”. For the same molecule, the “DOWN MDEW” value [7] was “+++ (90-100% control at 100 ppm)”, the mortality at 200 ppm [8] was 0% and the “LEAF RUST” value [9] was “+++ (90-100% control at 100 ppm)”. The mortality at 200 ppm [10] was 0%, the “LEAF BLOT” value [11] was “+++ (90-100% control at 100 ppm)” and the mortality at 12 ppm (corn rootworm) was 0%.

Cc1ccc(CCNc2ccnc3c(F)cccc23)s1 [Example 162, 8-fluoro-N-[2-(5-methyl-2-thienyl)ethyl]-4-quinolinamine] was tested, and the “RICE BLAST” value [1] was “+ (20-89% control at 400 ppm)”, the “POWD MDEW” value [2] was “+ (20-89% control at 400 ppm)” and the mortality at 200 ppm [3] was 0%. The “LEAF SPOT” value [4] was “- (0-19% control at 400 ppm)”, the “APPL SCAB” value [5] was “- (0-19% control at 400 ppm)” and the “GRAY MOLD” value [6] was “- (0-19% control at 400 ppm)”. The “DOWN MDEW” value [7] was “+++ (90-100% control at 100 ppm)”, the mortality at 200 ppm [8] was 0% and the “LEAF RUST” value [9] was “++ (90-100% control at 400 ppm)”. The mortality at 200 ppm [10] was 0%, the “LEAF BLOT” value [11] was “- (0-19% control at 400 ppm)” and the mortality at 12 ppm (corn rootworm) was 0%.
